Results reported in US20260184675A1, “CHIRAL ISOMERIC SULFITE COMPOUND AND APPLICATION THEREOF” (Chengdu Hanova BioSciences Co., Ltd, priority 2024, published 2026).

Key:
[1] = system: eggs of Spodoptera litura; assay: Effect on hatching of eggs of Spodoptera litura, egg piece soaking; type: in vivo; settings: 500 ppm; for Hatching rate (%), Replicate 1 / Hatching rate (%), Replicate 2 / Hatching rate (%), Replicate 3 / Number of unhatched larvae 4 days after insecticide delivery, Replicate 1 / Number of unhatched larvae 4 days after insecticide delivery, Replicate 2 / Number of unhatched larvae 4 days after insecticide delivery, Replicate 3: Spodoptera litura eggs; for Hatching rate (%), Replicate 1 / Hatching rate (%), Replicate 2 / Hatching rate (%), Replicate 3: 4 days after delivery; for Number of unhatched larvae 4 days after insecticide delivery, Replicate 1 / Number of unhatched larvae 4 days after insecticide delivery, Replicate 2 / Number of unhatched larvae 4 days after insecticide delivery, Replicate 3: soaked 10 minutes
Method: • (1) Preparation of paper containing eggs: the egg mass was cut into small pieces, each containing about 60 eggs, soaked in a preformulated test agent for 10 minutes together with paper for egg raising (concentration of each compound of 500 ppm). After taken out, absorbent paper was used to absorb the excess solution adhered to the paper for egg raising and egg pieces. (2) Cultivation: Each egg piece was separately placed in a glass test tube (5.0 cm in height, 2.5 cm in diameter, the same below), which was sealed with plastic paper punctured with fine holes using insect needles and cultivated in an artificial climate chamber at a temperature of (24±1° C.), a relative humidity of (80±10) %, and a photoperiod of L:D=12:12. When the eggs developed until they were about to hatch, castor leaves with a diameter of about 3 cm were added for feeding the hatching larvae; • (3) Observation: the number of hatched and unhatched eggs per egg piece was checked and recorded, and the hatching rate of eggs was calculated according to the formula. Each treatment was repeated for 3 times. • (4) Survey of results: The experimental materials of each treatment group were regularly hydrated and moisturized, and the hatching of eggs was observed. On the 4th day after insecticide delivery, the number of hatched eggs for each treatment was recorded, and the survey of results was recorded in the original notebook. According to the experimental requirements and characteristics of agents, the survey time can be shortened or extended. • 1) Surveying and recording the number of hatched eggs for each treatment. • 2) Recording the developmental status of experimental eggs of Spodoptera litura, behavior status of nymphs, including abnormal phenomena such as delayed or stopped development of eggs of Spodoptera litura, etc. • (5) Calculation method: Based on the survey data, the prevention and control effect of each treatment was calculated according to the following formula, and the calculation results were kept to two decimal places. [formula] [formula]

[2] = system: eggs of Panonychus citri; assay: Effect on hatching of eggs of Panonychus citri, leaf disc method; type: in vivo; settings: 1 ppm; for Hatching rate (%), Replicate 1 / Hatching rate (%), Replicate 2 / Hatching rate (%), Replicate 3 / Number of hatched larvae 5 days after insecticide delivery, Replicate 1 / Number of hatched larvae 5 days after insecticide delivery, Replicate 2 / Number of hatched larvae 5 days after insecticide delivery, Replicate 3: Panonychus citri eggs; for Hatching rate (%), Replicate 1 / Hatching rate (%), Replicate 2 / Hatching rate (%), Replicate 3: 5 days after delivery; for Number of hatched larvae 5 days after insecticide delivery, Replicate 1 / Number of hatched larvae 5 days after insecticide delivery, Replicate 2 / Number of hatched larvae 5 days after insecticide delivery, Replicate 3: leaf disc
Method: • (1) Preparation of leaf discs containing eggs: 20 female adult mites of Tetranychus cinnabarinus were transferred onto leaf discs of Vicia faba with a diameter of 2.0 cm (with wetted filter paper at the bottom), then covered it with a lidded culture dish and cultivated under moisturizing conditions, the adult mites were removed within 36 hours and microscopic examination and counting were performed on leaf discs containing eggs. • (2) Investigation of egg population base: Before pesticide soaking, a microscopic examination was conducted on the egg basic number of each leaf disc, with 2 replicates set for each treatment. • (3) Pesticide soaking treatment: The leaf butterflies loaded with mite eggs were soaked in clear water and sulfite compounds for 10 seconds, respectively, then taken out and cultivated under moisturizing conditions. Each treatment should be repeated for no less than 3 times. • (4) Cultivation and observation: The […] were cultivated under normal conditions. Five days after insecticide delivery, the hatching status of mite eggs was investigated. • Note: The temperature and humidity conditions of the constant temperature and humidity incubator after the treatment should be controlled so as to avoid excessive temperature differences, which may cause generation and dripping of condensate water in the culture dish, resulting in abnormal death of eggs due to soaking in water; it is also necessary to ensure sufficient strong ambient light, without directing irradiating the leaves. • (5) Survey of Results: The experimental materials of each treatment group were regularly hydrated and moisturized, and the hatching of eggs was observed. On the 7th day after insecticide delivery, the number of hatched eggs for each treatment was recorded, and the survey of results was recorded in the original notebook. According to the experimental requirements and characteristics of agents, the survey time can be shortened or extended.
• 1) Surveying and recording the number of hatched eggs for each treatment. • 2) Photographing and recording whether there was any pesticide damage to the leaf discs of Vicia faba. • 3) Recording the developmental status of experimental mite eggs, behavior status of nymph mites, including abnormal phenomena such as delayed or stopped development of mite eggs, difficulty in breaking hull for nymph mites, or painful struggles after hatching, etc. • (6) Calculation method: Based on the survey data, the prevention and control effect of each treatment was calculated according to the following formula, and the calculation results were kept to two decimal places.
This test adopted the method in Test Example 1 of technical section, mainly used leaf disc method to explore the effect on hatching of eggs of Panonychus citri by compounds 1-(S,S), 1-(S,R), 1-(R,R), 1-(R,S), 1′-(S,S), 1′-(S,R), 1′-(R,R), 1′-(R,S), compound 1, compound 1′, S-10, R-10, S-10′, R-10′, compound 10, compound 10′, compound 19-(S,S), 19-(S,R), 19-(R,R), 19-(R,S), 19′-(S,S), 19′-(S,R), 19′-(R,R), 19′-(R,S), compound 19, and compound 19′. The concentration of all compounds was 1 ppm.

## CCC(COS(=O)OCCF)Oc1ccc(Cl)cc1Cl [19′-(R,R)]
[1]
  inhibitory activity on the hatching of eggs of Spodoptera litura (in words): good inhibitory activities
[1]; listed as 19′-(R, R)
  Hatching rate (%), Replicate 1: 17.54%
  Hatching rate (%), Replicate 2: 16.95%
  Hatching rate (%), Replicate 3: 19.12%
  Number of unhatched larvae 4 days after insecticide delivery, Replicate 1: 47
  Number of unhatched larvae 4 days after insecticide delivery, Replicate 2: 49
  Number of unhatched larvae 4 days after insecticide delivery, Replicate 3: 55
[2]
  inhibitory effect on the hatching of eggs of Panonychus citri (in words): good inhibitory effects
  Hatching rate (%), Replicate 1: 0.00%
  Hatching rate (%), Replicate 2: 0.00%
  Hatching rate (%), Replicate 3: 0.00%
  Number of hatched larvae 5 days after insecticide delivery, Replicate 1: 0
  Number of hatched larvae 5 days after insecticide delivery, Replicate 2: 0
  Number of hatched larvae 5 days after insecticide delivery, Replicate 3: 0

## CC(C)(COS(=O)OCCF)Oc1ccc(Cl)cc1Cl (centres unmarked) [S-10′]
[1]
  inhibitory activity on the hatching of eggs of Spodoptera litura (in words): good inhibitory activities
  Hatching rate (%), Replicate 1: 22.03%
  Hatching rate (%), Replicate 2: 21.88%
  Hatching rate (%), Replicate 3: 21.67%
  Number of unhatched larvae 4 days after insecticide delivery, Replicate 1: 46
  Number of unhatched larvae 4 days after insecticide delivery, Replicate 2: 50
  Number of unhatched larvae 4 days after insecticide delivery, Replicate 3: 47
[2]
  inhibitory effect on the hatching of eggs of Panonychus citri (in words): good inhibitory effects
  Hatching rate (%), Replicate 1: 0.00%
  Hatching rate (%), Replicate 2: 0.00%
  Hatching rate (%), Replicate 3: 0.00%
  Number of hatched larvae 5 days after insecticide delivery, Replicate 1: 0
  Number of hatched larvae 5 days after insecticide delivery, Replicate 2: 0
  Number of hatched larvae 5 days after insecticide delivery, Replicate 3: 0

## CCC(COc1ccc(Cl)cc1Cl)OS(=O)OCCF [19-(S,S)]
[1]; listed as 19-(S, S)
  Hatching rate (%), Replicate 1: 50.00%
  Hatching rate (%), Replicate 2: 51.72%
  Hatching rate (%), Replicate 3: 50.91%
  Number of unhatched larvae 4 days after insecticide delivery, Replicate 1: 30
  Number of unhatched larvae 4 days after insecticide delivery, Replicate 2: 28
  Number of unhatched larvae 4 days after insecticide delivery, Replicate 3: 27
[2]; listed as 19-(S, S)
  Hatching rate (%), Replicate 1: 10.08%
  Hatching rate (%), Replicate 2: 9.90%
  Hatching rate (%), Replicate 3: 10.47%
  Number of hatched larvae 5 days after insecticide delivery, Replicate 1: 12
  Number of hatched larvae 5 days after insecticide delivery, Replicate 2: 10
  Number of hatched larvae 5 days after insecticide delivery, Replicate 3: 9

## CC[C@@H](COS(=O)OCCF)Oc1ccc(Cl)cc1Cl (stereo partly drawn) [19′-(S,R)]
[1]; listed as 19′-(S, R)
  Hatching rate (%), Replicate 1: 53.57%
  Hatching rate (%), Replicate 2: 53.23%
  Hatching rate (%), Replicate 3: 53.73%
  Number of unhatched larvae 4 days after insecticide delivery, Replicate 1: 26
  Number of unhatched larvae 4 days after insecticide delivery, Replicate 2: 29
  Number of unhatched larvae 4 days after insecticide delivery, Replicate 3: 31
[2]; listed as 19′-(S, R)
  Hatching rate (%), Replicate 1: 9.57%
  Hatching rate (%), Replicate 2: 10.28%
  Hatching rate (%), Replicate 3: 10.08%
  Number of hatched larvae 5 days after insecticide delivery, Replicate 1: 9
  Number of hatched larvae 5 days after insecticide delivery, Replicate 2: 11
  Number of hatched larvae 5 days after insecticide delivery, Replicate 3: 12

## CC(COc1ccc(Cl)cc1Cl)OS(=O)OCCF [1′-(R,R)]
[1]; listed as 1′-(R, R)
  Hatching rate (%), Replicate 1: 61.82%
  Hatching rate (%), Replicate 2: 64.29%
  Hatching rate (%), Replicate 3: 62.71%
  Number of unhatched larvae 4 days after insecticide delivery, Replicate 1: 21
  Number of unhatched larvae 4 days after insecticide delivery, Replicate 2: 20
  Number of unhatched larvae 4 days after insecticide delivery, Replicate 3: 22
[2]; listed as 1′-(R, R)
  Hatching rate (%), Replicate 1: 8.33%
  Hatching rate (%), Replicate 2: 7.07%
  Hatching rate (%), Replicate 3: 5.51%
  Number of hatched larvae 5 days after insecticide delivery, Replicate 1: 6
  Number of hatched larvae 5 days after insecticide delivery, Replicate 2: 7
  Number of hatched larvae 5 days after insecticide delivery, Replicate 3: 7

## CC(COS(=O)OCCF)Oc1ccc(Cl)cc1Cl (centres unmarked) [Compound 1]
[1]
  Hatching rate (%), Replicate 1: 41.38%
  Hatching rate (%), Replicate 2: 39.68%
  Hatching rate (%), Replicate 3: 40.42%
  Number of unhatched larvae 4 days after insecticide delivery, Replicate 1: 34
  Number of unhatched larvae 4 days after insecticide delivery, Replicate 2: 38
  Number of unhatched larvae 4 days after insecticide delivery, Replicate 3: 37
[2]
  inhibitory effect on the hatching of eggs of Panonychus citri (in words): good inhibitory effects
  Hatching rate (%), Replicate 1: 0.00%
  Hatching rate (%), Replicate 2: 0.00%
  Hatching rate (%), Replicate 3: 0.00%
  Number of hatched larvae 5 days after insecticide delivery, Replicate 1: 0
  Number of hatched larvae 5 days after insecticide delivery, Replicate 2: 0
  Number of hatched larvae 5 days after insecticide delivery, Replicate 3: 0
